Each block holds one compound with its values, some of them ahead of it.
What was measured:
histamine H2-receptors [1] = target: T1, histamine H2-receptors (Cavia porcellus, UniProt P47747); test: Histamine H2-receptor antagonism, isolated guinea pig right atria assay; design: species or system guinea pig (male Hartley strain); details: for Histamine ED50 after test compound / Concentration-Response Curve Displacement Factor: test compound 3 × 10^-5 M; for Histamine ED50 after test compound: 30 minute incubation; for Concentration-Response Curve Displacement Factor: shift of histamine curve to the right
T1 construct: The spontaneously beating right atrium was dissected free from other tissues; from tissue; host or cells: isolated spontaneously beating right atrium, male Hartley guinea pig
T1 sequence (P47747 whole entry): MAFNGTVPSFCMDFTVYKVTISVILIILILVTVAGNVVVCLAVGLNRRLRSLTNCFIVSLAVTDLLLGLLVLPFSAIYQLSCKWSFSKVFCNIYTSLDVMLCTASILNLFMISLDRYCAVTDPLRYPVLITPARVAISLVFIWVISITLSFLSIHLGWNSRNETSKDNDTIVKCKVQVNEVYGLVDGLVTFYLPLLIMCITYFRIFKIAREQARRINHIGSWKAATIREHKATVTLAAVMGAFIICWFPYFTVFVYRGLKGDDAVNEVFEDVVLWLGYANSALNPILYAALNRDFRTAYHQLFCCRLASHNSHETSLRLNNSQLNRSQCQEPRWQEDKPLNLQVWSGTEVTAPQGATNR
Experimental: Subsequent investigations by Hughes and Coret, Proc. Soc. […] Black et al., Agents and Actions, 3, 133 (1973) and Brimblecombe et al., Fed. […] The present comparative studies were carried out using a modification of the procedure reported by Reinhardt et al., Agents and Actions, 4, 217 (1974).
Male Hartley strain guinea pigs (350-450 gm.) were sacrificed by a blow on the head. The heart was excised and placed in a Petri dish of oxygenated (95% O2, 5% CO2) modified Krebs solution (g./liter: NaCl 6.6, KCl 0.35, MgSO4.7 H2 O 0.295, KH2 PO4 0.162, CaCl2 0.238, NaHCO3 2.1 and dextrose 2.09). The spontaneously beating right atrium was dissected free from other tissues and a silk thread (4-O) attached to each end. The atrium was suspended in a 20 ml. muscle chamber containing oxygenated modified Krebs solution maintained at 32° C. Atrial contractions were recorded isometrically by means of a Grass FT 0.03 force displacement transducer and recordings of contractile force and rate were made with a Beckman RP Dynograph.
A resting tension of 1 g. was applied to the atrium and it was allowed to equilibrate for 1 hour.
Concentration-response curve displacement factors were calculated as follows: [formula] […] [formula]

gastric acid output [2] = test: Gastric antisecretory activity in the gastric fistula dog (histamine-induced gastric acid output); type: in vivo, dog (beagle); details: for ED50: Canis lupus familiaris, read-out: ED50 (acid output); for Potency Ratio: relative to cimetidine
Experimental: Thomas type [Thomas, J. E., Proc. Soc. exp. Biol. Med., 46, 260 (1941)] stainless steel cannulae are inserted into the stomachs of beagle dogs (10-12 kg.) just orad to the pyloric gland area near the greater curvature to provide a chronic gastric fistula. Animals are allowed to recover for at least two months before any testing is done. Dogs are fasted overnight (~18 hours) with water ad lib prior to each experiment. The dogs are placed in a sling and an eight inch inside needle catheter (C. R. Baird, Inc.) with a two inch 17 gauge needle is inserted into a leg vein for purposes of drug administration. Gastric secretions are collected every 15 minutes by gravity drainage from the opened cannula. […] A modification of the procedure described by Grossman and Konturek, Gastroenterology, 66, 517 (1974) was followed. […] Each 15 minute sample of gastric juice is measured to the nearest 0.5 ml. and titratable acidity against 0.02 N NaOH (endpoint pH 7.0) is measured with an Autoburet and pH meter (radiometer).The percent inhibition of acid output is calculated as described in the pylorus ligated rat procedure.

gastric acid output [3] = test: Gastric antisecretory activity in the two hour pylorus ligated (Shay) rat; type: in vivo, rat (male Long Evans); details: for ED50: 2 h, read-out: ED50 (acid output); for Potency Ratio: relative to cimetidine
Source text: The pyloric ligation procedure in the rat was designed by Shay et al., Gastroenterology, 5, 53 (1945) for the study of perforating gastric ulcers; however, as the method became known, it was also employed as a means of studying rat gastric secretion, Shay et al., Gastroenterology, 26, 906 (1954), Brodie, D. A., Am. J. Dig. Dis., 11, 231 (1966). A modification of this procedure is presently used to evaluate compounds for gastric antisecretory activity.
Male Long Evans rats, 280-300 gm., are used. The animals are placed in individual cages and fasted for 24 hours with free access to water. Under ether anesthesia, the stomach is reached through a midline incision, and a cotton-thread ligature is placed around the pylorus. […] All compounds are solubilized with one equivalent of HCl and brought to the proper volume with water. The animals are returned to their cages from which the water bottles have been removed and two hours later are sacrificed with ether. The stomach is removed and the two hour gastric collection is drained into a graduated test tube for volume determination. Titratable acidity is measured by titrating a one ml. sample to pH 7.0 with 0.02 N NaOH, using an Autoburet and an electrometric pH meter (Radiometer). Titratable acid output is calculated in microequivalents by multiplying the volume in milliliters by the acid concentration in milliequivalents per liter. The percent inhibition of acid output is calculated as follows: [formula]

agranulocytosis = details: in vivo; cited from earlier work
[4] = cited from earlier work
H2 receptors = details: cited from earlier work
peptic ulcer disease = details: clinical evaluation, Gray et al.; cited from earlier work
histamine H2-receptors [5] = target: T1, histamine H2-receptors; details: Black et al., isolated guinea pig right atria; cited from earlier work
gastric secretion = details: animals and man; cited from earlier work
[6] = 1.50 μMole/kg iv (BL-5949: one dog at this dose)
[7] = iv, histamine-stimulated gastric fistula dog
[8] = ip, two hour pylorus ligated rat
[9] = compared with cimetidine and Compound XII

Structure (SMILES): NCCc1c[nH]cn1 [Histamine]
Histamine ED50 (control, before test compound) (histamine H2-receptors [1]; control of Compound XII series, N=2, contractile rate): 0.24 µg/mL

Histamine ED50 after test compound (histamine H2-receptors [1]): 4.30 µg/mL | Concentration-Response Curve Displacement Factor (histamine H2-receptors [1]): 17.92
Structure (SMILES): CNC(=C[N+](=O)[O-])NCCSCc1[nH]cnc1C [Compound XII]
Percent Inhibition Acid Output (gastric acid output [2]; 0.375 μMole/kg iv): 22% | Percent Inhibition Acid Output (gastric acid output [2]; 0.75 μMole/kg iv): 42% | Percent Inhibition Acid Output (gastric acid output [2]; [6]): 73% | ED50 (gastric acid output [2]; [7]): 0.9 µmol/kg | Potency Ratio (gastric acid output [2]; iv): 1.47 | Percent Inhibition Acid Output (gastric acid output [3]; 10 μMole/kg ip): 25% | Percent Inhibition Acid Output (gastric acid output [3]; 20 μMole/kg ip): 64% | Percent Inhibition Acid Output (gastric acid output [3]; 40 μMole/kg ip): 86% | ED50 (gastric acid output [3]; [8]): 17.2 µmol/kg | Potency Ratio (gastric acid output [3]; ip): 0.61

Structure (SMILES): CNC(=NC#N)NCCSCc1[nH]cnc1C [Cimetidine]
Percent Inhibition Acid Output (gastric acid output [2]; 0.75 μMole/kg iv): 37% | Percent Inhibition Acid Output (gastric acid output [2]; [6]): 53% | Percent Inhibition Acid Output (gastric acid output [2]; 3.0 μMole/kg iv): 73% | ED50 (gastric acid output [2]; iv): 1.33 µmol/kg | Toxicity (agranulocytosis) (agranulocytosis): without producing agranulocytosis | Histamine ED50 after test compound (histamine H2-receptors [1]): 4.80 µg/mL | Concentration-Response Curve Displacement Factor (histamine H2-receptors [1]): 25.26 | half-life ([4]; in vivo): relatively short | H2 antagonist activity (in words) (H2 receptors): as effective an H2 antagonist as metiamide | Percent Inhibition Acid Output (gastric acid output [3]; 2.5 μMole/kg ip): 9% | Percent Inhibition Acid Output (gastric acid output [3]; 5 μMole/kg ip): 53% | Percent Inhibition Acid Output (gastric acid output [3]; 10 μMole/kg ip): 41% | Percent Inhibition Acid Output (gastric acid output [3]; 20 μMole/kg ip): 57% | Percent Inhibition Acid Output (gastric acid output [3]; 40 μMole/kg ip): 72% | ED50 (gastric acid output [3]; Rattus norvegicus, ip): 10.4 µmol/kg | Efficacy in the treatment of peptic ulcer disease (in words) (peptic ulcer disease): effective therapeutic agent in the treatment of peptic ulcer disease

times as active as Compound XII (histamine H2-receptors [1]; relative to Compound XII): about 2.7 times | Histamine ED50 after test compound (histamine H2-receptors [1]): 14.05 µg/mL | Concentration-Response Curve Displacement Factor (histamine H2-receptors [1]): 46.83
Structure (SMILES): C#CCNC(=C[N+](=O)[O-])NCCSCc1[nH]cnc1C [BL-5949, 1-Nitro-2-(2-propynylamino)-2-{2-[(4-methyl-1H-imidazol-5-yl)methylthio]ethylamino}ethylene]
Percent Inhibition Acid Output (gastric acid output [2]; 0.0938 μMole/kg iv): 34% | Percent Inhibition Acid Output (gastric acid output [2]; 0.1875 μMole/kg iv): 46% | Percent Inhibition Acid Output (gastric acid output [2]; 0.375 μMole/kg iv): 62% | Percent Inhibition Acid Output (gastric acid output [2]; 0.75 μMole/kg iv): 68% | ED50 (gastric acid output [2]; [7]): 0.24 µmol/kg | Potency as inhibitor of gastric secretion in dogs (in words) (gastric acid output [2]; [9]): more potent than either cimetidine or Compound XII | times more potent than Compound XII (gastric acid output [2]; relative to Compound XII, iv): 3.8 times | Potency Ratio (gastric acid output [2]; iv): 5.56 | Potency as histamine H2-receptor antagonist in isolated guinea pig atria (in words) (histamine H2-receptors [1]; [9]): more potent than either cimetidine or Compound XII | Percent Inhibition Acid Output (gastric acid output [3]; 2.5 μMole/kg ip): 33% | Percent Inhibition Acid Output (gastric acid output [3]; 5 μMole/kg ip): 51% | Percent Inhibition Acid Output (gastric acid output [3]; 20 μMole/kg ip): 87% | ED50 (gastric acid output [3]; [8]): 4.62 µmol/kg | Potency as inhibitor of gastric secretion in rats (in words) (gastric acid output [3]; [9]): more potent than either cimetidine or Compound XII | times more potent than Compound XII (gastric acid output [3]; relative to Compound XII, ip): 3.7 times | Potency Ratio (gastric acid output [3]; ip): 2.26

Structure (SMILES): CNC(=S)NCCCCc1cnc[nH]1 [Burimamide]
oral absorption ([4]; oral): poor | Type of antagonism at histamine H2-receptors (in words) (histamine H2-receptors [5]): competitive antagonist of these receptors | Inhibition of gastric secretion / oral activity (in words) (gastric secretion): inhibits gastric secretion in animals and man

Structure (SMILES): CNC(=S)NCCSCc1[nH]cnc1C [Metiamide]
Toxicity (agranulocytosis) (agranulocytosis): toxicity (agranulocytosis) | H2 antagonist activity (in words) (H2 receptors): more potent than burimamide | Inhibition of gastric secretion / oral activity (in words) (gastric secretion): orally active in man
